From PubChem BioAssay AID256 (DTP/NCI, 2004)
Where “and” joins values, the source holds several entries; their conditions need not be identical. Equal entries are not always repeated. Inconclusive results and toxic doses are left out.

Tested on: CD2F1 mice, L1210 leukemia ip, survival T/C
Assay: NCI In Vivo Anticancer Drug Screen. Data for tumor model L1210 Leukemia (intraperitoneal) in CD2F1 (CDF1) mice
Conditions: endpoint: mean survival time, higher = longer survival
Outline: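 Mice carrying a transplanted tumor received test compound or vehicle alone. The value is the measurement in the treated group divided by that in the vehicle-treated control group.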

[1] = dose: 50.0 mg/kg/injection, schedule: Q01DX009 (ip), vehicle: saline with Tween-80
[2] = dose: 100.0 mg/kg/injection, schedule: Q01DX009 (ip), vehicle: saline with Tween-80
[3] = dose: 100.0 mg/kg/injection, schedule: Q04DX003 (ip), vehicle: saline with Tween-80
[4] = dose: 200.0 mg/kg/injection, schedule: Q04DX003 (ip), vehicle: saline with Tween-80
[5] = dose: 100.0 mg/kg/injection, schedule: Q04DX003 (ip), vehicle: saline
[6] = dose: 200.0 mg/kg/injection, schedule: Q04DX003 (ip), vehicle: saline
[7] = dose: 200.0 mg/kg/injection, schedule: Q01DX009 (ip), vehicle: saline with Tween-80

`CN(C)CCSCC(=O)N1c2ccccc2Sc2ccc(Cl)cc21` was tested, and the T/C [1] was 103 % of control, the T/C [2] was 101 % of control and the T/C [3] was 98 % of control. For the same molecule, the T/C [4] was 98 % of control.

For `S=C(NCc1ccccc1)Nc1ncn[nH]1`, the T/C (dose: 12.5 mg/kg/injection, schedule: Q01DX001 (ip), vehicle: carboxymethylcellulose (CMC)) was 97 % of control, the T/C (dose: 25.0 mg/kg/injection, schedule: Q01DX001 (ip), vehicle: carboxymethylcellulose (CMC)) was 89 % of control and the T/C (dose: 50.0 mg/kg/injection, schedule: Q01DX001 (ip), vehicle: carboxymethylcellulose (CMC)) was 86 % of control. For the same molecule, the T/C (dose: 100.0 mg/kg/injection, schedule: Q01DX001 (ip), vehicle: carboxymethylcellulose (CMC)) was 86 % of control.

`O=C(O)CSc1ccccc1` was tested, and the T/C (dose: 25.0 mg/kg/injection, schedule: Q04DX003 (ip), vehicle: other) was 98 % of control, the T/C (dose: 50.0 mg/kg/injection, schedule: Q04DX003 (ip), vehicle: other) was 98 % of control and the T/C [5] was 100 % of control. For the same molecule, the T/C [6] was 98 % of control.

`CC(C)c1ccc2cc(C(C)C)ccc2c1` was tested, and the T/C [3] was 86 % of control, the T/C [4] was 92 % of control and the T/C (dose: 400.0 mg/kg/injection, schedule: Q04DX003 (ip), vehicle: saline with Tween-80) was 92 % of control.

For `CN(Cc1cnc2nc(N)nc(N)c2n1)c1ccc(C(=O)NC(CCC(=O)NC(CCC(=O)NC(CCC(=O)O)C(=O)O)C(=O)O)C(=O)O)cc1` (configuration not stated), the T/C (dose: 0.5 mg/kg/injection, schedule: Q01DX005 (ip), vehicle: sodium bicarbonate) was 98 % of control, the T/C (dose: 1.0 mg/kg/injection, schedule: Q01DX005 (ip), vehicle: sodium bicarbonate) was 111 % of control and 112 % of control and the T/C (dose: 2.0 mg/kg/injection, schedule: Q01DX005 (ip), vehicle: sodium bicarbonate) was 114 % of control and 121 % of control. For the same molecule, the T/C (dose: 8.0 mg/kg/injection, schedule: Q01DX005 (ip), vehicle: sodium bicarbonate) was 152 % of control and 153 % of control and the T/C (dose: 16.0 mg/kg/injection, schedule: Q01DX005 (ip), vehicle: sodium bicarbonate) was 158 % of control.

`Cc1ccc(S(=O)(=O)NC(=O)OC23COCN2COC3)cc1` was tested, and the T/C (dose: 12.5 mg/kg/injection, schedule: Q01DX009 (ip), vehicle: saline with Tween-80) was 96 % of control and 101 % of control, the T/C (dose: 25.0 mg/kg/injection, schedule: Q01DX009 (ip), vehicle: saline with Tween-80) was 96 % of control and 102 % of control and the T/C [1] was 97 % of control and 101 % of control. The T/C [2] was 117 % of control and 102 % of control, the T/C [7] was 113 % of control and 108 % of control and the T/C (dose: 400.0 mg/kg/injection, schedule: Q01DX009 (ip), vehicle: saline with Tween-80) was 113 % of control and 105 % of control.

For `C/C=C/COC1CCS(=O)(=O)C1` (configuration not stated), the T/C [1] was 104 % of control, the T/C [2] was 97 % of control and the T/C [7] was 97 % of control.

With `S=C(N/N=C1\C=Cc2ccccc2C1)N/N=C1\C=Cc2ccccc2C1` the T/C (dose: 50.0 mg/kg/injection, schedule: Q04DX003 (ip), vehicle: saline) was 87 % of control, the T/C [5] was 93 % of control and the T/C [6] was 93 % of control.

In the case of `CCOC(=O)CC1CCCCC1CC(=O)OCC` (configuration not stated), the T/C (dose: 37.5 mg/kg/injection, schedule: Q01DX009 (ip), vehicle: saline) is reported as 95 % of control, the T/C (dose: 75.0 mg/kg/injection, schedule: Q01DX009 (ip), vehicle: saline) is reported as 98 % of control and the T/C (dose: 75.0 mg/kg/injection, schedule: Q04DX003 (ip), vehicle: saline) is reported as 97 % of control. The T/C (dose: 150.0 mg/kg/injection, schedule: Q01DX009 (ip), vehicle: saline) was 100 % of control, the T/C (dose: 150.0 mg/kg/injection, schedule: Q04DX003 (ip), vehicle: saline) was 103 % of control and the T/C (dose: 300.0 mg/kg/injection, schedule: Q04DX003 (ip), vehicle: saline) was 101 % of control.

For `Nc1cc(C(=O)Nc2ccc(C3=NCCN3)cc2)cc(C(=O)Nc2ccc(C3=NCCN3)cc2)c1`, the T/C (dose: 31.3 mg/kg/injection, schedule: Q01DX010 (oral), vehicle: saline) was 115 % of control and the T/C (dose: 250.0 mg/kg/injection, schedule: Q01DX010 (oral), vehicle: saline) was 159 % of control.

`COC(=O)C(CS)NC(=O)CCNC(=O)OCc1ccccc1` (configuration not stated) was tested, and the T/C (dose: 12.5 mg/kg/injection, schedule: Q01DX009 (ip), vehicle: sodium bicarbonate) was 100 % of control, the T/C (dose: 25.0 mg/kg/injection, schedule: Q01DX009 (ip), vehicle: sodium bicarbonate) was 96 % of control and the T/C (dose: 50.0 mg/kg/injection, schedule: Q01DX009 (ip), vehicle: sodium bicarbonate) was 91 % of control. For the same molecule, the T/C (dose: 100.0 mg/kg/injection, schedule: Q01DX009 (ip), vehicle: sodium bicarbonate) was 93 % of control and the T/C (dose: 200.0 mg/kg/injection, schedule: Q01DX009 (ip), vehicle: sodium bicarbonate) was 88 % of control.

`CCOC(=O)c1ncsc1NC(=O)NC` was tested, and the T/C (dose: 75.0 mg/kg/injection, schedule: Q01DX001 (ip), vehicle: saline) was 101 % of control and the T/C (dose: 150.0 mg/kg/injection, schedule: Q01DX001 (ip), vehicle: saline) was 100 % of control.
